In patent US20050143453A1, “Selective preventing and therapeutic agents for progressive lesion after organic damage” (priority 2000, published 2005):
Where two headings read alike, the source gives them in different places.

Test system: induction of effector macrophage by contact of human PBMC with lipopolysaccharide
Assay: SPFC production by LPS stimulation (Test Example 1)
Format: cell-based
Procedure: A suppressive effect of the test compound to effector macrophage induction was investigated in vitro by an induction and production system of spontaneous plaque-forming cell (SPEC) mentioned in M. Ishibashi, S. Jiang, Y. Kokado, S. Takahara, T. Sonoda: Immunopharmacologic effects of immunosuppressive agents explored by a new effector generation assay. Transplant Proc., 21: 1854-1858, 1989.
Heparin-added peripheral blood (40 ml) was collected from a healthy person and the same amount of EDTA-added physiological saline was added. PBMC were obtained by a specific gravity centrifugal method using Ficoll-Hypaque (manufactured by Pharmacia Fine Chemicals). Self-plasma was added thereto and allowed to stand at 37° C. for 10 minutes and platelets were removed by a low-speed centrifugal separation. RPMI 1640 liquid containing 15 μg/ml of gentamicin and 2 mM L-glutamine was used for washing the PBMC. Concentration of the PBMC was adjusted to 2×10^6 cells/ml using the same liquid.
Each 200 μl of a solution containing 2×10^6 PBMC/ml prepared in the step 1 were added to each well of a micro test plate, lipopolysaccharide (hereinafter, abbreviated as LPS) was diluted with the RPMI 1640 liquid to make the final concentration 80 μg/ml and the said LPS solution was added to each well of the 200 μl-micro test plate. Further, each 50 μl of human serum of type AB were added so as to make the concentration 10% by weight. Two such micro test plates were prepared.
After that, to the above two micro test plates was added a solution where the test compound was diluted with 1% by weight of DMSO so as to make the concentration of the test compound 1 μM. Similarly were prepared each two micro test plates where the final concentrations of the test compound were 0.1 μM, 0.01 μM and 0.001 μM.
The culture liquid prepared as such was incubated for 6 days at 37° C. in 5% CO2.
The effector macrophage induced after the incubation was all recovered using a rubber-policeman (spatula made of rubber). A Hanks solution containing 5 μg/ml of gentamicin was used for washing and, using the said solution, there was prepared a solution where the concentration of the induced effector macrophage was 2×10^6 per ml.
With regard to autologous erythrocytes, those which were preserved at 4° C. in a phosphate physiological saline (hereinafter, abbreviated as PBS) to which 0.1% by weight of AB serum and autologous erythrocytes obtained from PBMC separation were used were used. The preserved autologous erythrocytes were washed for three times with a Hanks solution to which no serum was added and made into a solution of 4% by weight concentration using the said Hanks solution. Poly-L-lysine was added to a Terasaki plate and washed with PBS every 20 minutes at 37° C., the above-mentioned autologous erythrocyte solution was added thereto immediately, the mixture was allowed to stand at 37° C. for 30 minutes and the erythrocytes which were not adhered to the plate were removed to prepare a Terasaki plate to which self-erythrocytes in a monolayer were adhered.
A Hanks solution (4 μl) was added to the said Terasaki plate, 4 μl of a solution containing the induced effector macrophage obtained in the step 3 were added thereto and the mixture was allowed to stand at 37° C. for 2 hours. After completion of the reaction, it was fixed by formalin. Numbers of the produced SPFC which were adhered or phagocytized were measured.
A mean SPFC production number was calculated from the measured values of SPFC production when the concentration of the test compound was the same. SPFC production number per 1×10^6 of the induced effector macrophage was calculated and, from the recovered induced effector macrophage numbers, total SPFC production amount (S2) was calculated.
As a control, no test compound was added and the same operation as above was carried out to calculate the total SPFC production amount (S1). […]

For `CCOC(=O)C(=O)CCC(=O)O` [(9-1), ethyl 2-ketoglutarate], the IC50 (Table 5, read-out: Inhibiting Concentration for SPEC Production by LPS Stimulation (μM: IC50)) was > 1 µM and the IC50 (human PBMC with LPS 80 μg/ml, incubated 6 days, Table 1, read-out: SPFC Production Inhibiting Concentration by LPS Stimulation (μM: IC50)) was > 1 µM.
